Test system: human polymorphonuclear phagocytes
Assay: in vitro PMN model: ROS formation triggered by fMLP, dihydrorhodamine fluorescence by flow cytometry
Assay type: cell-based
Experimental: L-ergothioneine meeting the purity specifications defined herein was tested using in an in vitro PMN model using cells from a healthy blood donor. Minute samples of blood were exposed to L-ergothioneine (0.01-5 g/L) for 24 hours. The cells were then loaded with the dihydrorhodamine dye, which turns fluorescent upon exposure to ROS. Formation of ROS was triggered by addition of the bacterial peptide f-Met-Leu-Phe (fMLP). The samples were treated with a lysing buffer to eliminate most of the red blood cells in the samples, after which the samples were fixed in formalin. The fluorescence intensity of the PMN cells was evaluated by flow cytometry. The low fluorescence intensity of untreated control cells served as a baseline and PMN cells treated with fMLP alone served as a positive control.
The results are depicted in FIG. 1. […] The percent inhibition is shown as the average±standard deviation of sextuplicate data points for each dose of L-ergothioneine.

C[N+](C)(C)[C@@H](Cc1c[nH]c(=S)[nH]1)C(=O)[O-] [L-ergothioneine, (2S)-3-(2-thioxo-2,3-dihydro-1H-imidazol-4-yl)-2-(trimethylammonio)-propanoate]
ROS formation in response to the bacterial peptide fMLP (PMN cells from a healthy blood donor, L-ergothioneine 0.01-5 g/L for 24 hours, compared to fMLP alone): enhanced ROS formation
increase in ROS formation compared to the control cultures (across the 0.6 g/L dose reported in human tissue, 24 hours, fMLP-triggered): remained statistically significant
